# Experimental data published in the kinase profiling compilation of Christmann-Franck et al. (2016).
# Tests used:
# Experiment in all cases: radiometric filter-binding kinase assay
# [1] = tested on: AKT1 (human), P31749 [S473D]
# BRSK2 (human) = BRSK2 (human) (UniProt Q8IWQ3)
# CHEK2 (human) = CHEK2 (human) (UniProt O96017)
# CaMK1 (human) = CaMK1 (human) (UniProt Q14012)
# DYRK1A (human) = DYRK1A (human) (UniProt Q13627)
# DYRK2 (human) = DYRK2 (human) (UniProt Q92630)
# HIPK2 (human) = HIPK2 (human) (UniProt Q9H2X6)
# HIPK2 (human), sequence (Q9H2X6 whole entry, looked up): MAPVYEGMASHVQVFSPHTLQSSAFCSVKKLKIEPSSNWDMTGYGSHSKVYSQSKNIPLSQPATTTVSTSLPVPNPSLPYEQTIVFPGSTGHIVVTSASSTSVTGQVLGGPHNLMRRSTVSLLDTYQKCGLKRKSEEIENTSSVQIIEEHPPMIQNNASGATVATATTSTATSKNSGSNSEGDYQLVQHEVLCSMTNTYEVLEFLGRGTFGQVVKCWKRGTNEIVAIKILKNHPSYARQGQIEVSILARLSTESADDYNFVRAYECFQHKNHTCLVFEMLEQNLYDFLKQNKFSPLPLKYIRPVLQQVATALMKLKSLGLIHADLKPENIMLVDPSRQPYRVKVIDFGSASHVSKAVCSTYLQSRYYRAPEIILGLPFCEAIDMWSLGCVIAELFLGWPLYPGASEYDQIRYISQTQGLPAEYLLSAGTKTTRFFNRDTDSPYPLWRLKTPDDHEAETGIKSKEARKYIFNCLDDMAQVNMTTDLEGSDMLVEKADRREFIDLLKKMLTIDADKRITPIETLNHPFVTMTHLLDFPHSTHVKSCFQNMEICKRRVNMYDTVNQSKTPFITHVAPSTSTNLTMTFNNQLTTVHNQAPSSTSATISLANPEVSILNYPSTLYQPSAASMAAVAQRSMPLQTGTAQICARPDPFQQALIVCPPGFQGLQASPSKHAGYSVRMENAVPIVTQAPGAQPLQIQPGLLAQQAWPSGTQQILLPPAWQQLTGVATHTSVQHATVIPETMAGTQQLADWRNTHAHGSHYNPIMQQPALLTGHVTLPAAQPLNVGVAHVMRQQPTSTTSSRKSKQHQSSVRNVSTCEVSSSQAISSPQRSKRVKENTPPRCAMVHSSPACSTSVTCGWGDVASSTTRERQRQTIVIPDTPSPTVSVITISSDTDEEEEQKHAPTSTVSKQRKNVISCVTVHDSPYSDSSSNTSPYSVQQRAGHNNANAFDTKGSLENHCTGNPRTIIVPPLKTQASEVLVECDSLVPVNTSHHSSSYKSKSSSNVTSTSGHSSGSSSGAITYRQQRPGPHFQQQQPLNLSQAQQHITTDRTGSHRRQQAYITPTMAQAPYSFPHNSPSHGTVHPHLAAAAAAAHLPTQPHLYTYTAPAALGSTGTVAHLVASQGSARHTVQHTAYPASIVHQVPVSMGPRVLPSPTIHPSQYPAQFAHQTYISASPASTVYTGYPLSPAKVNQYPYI
# MAPK1 (human) = MAPK1 (human) (UniProt P28482)
# MAPK1 (human), sequence (P28482 whole entry, looked up): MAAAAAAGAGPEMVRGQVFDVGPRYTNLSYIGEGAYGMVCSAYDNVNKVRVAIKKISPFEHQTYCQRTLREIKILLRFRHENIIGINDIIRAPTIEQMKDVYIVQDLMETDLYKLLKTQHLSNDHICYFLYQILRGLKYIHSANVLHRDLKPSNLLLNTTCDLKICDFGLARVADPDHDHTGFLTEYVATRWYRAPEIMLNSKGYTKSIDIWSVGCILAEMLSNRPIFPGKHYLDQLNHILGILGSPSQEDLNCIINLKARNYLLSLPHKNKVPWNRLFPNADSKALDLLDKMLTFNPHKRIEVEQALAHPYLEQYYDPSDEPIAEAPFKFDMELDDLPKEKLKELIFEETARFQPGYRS
# MAPK10 (human) = MAPK10 (human) (UniProt P53779)
# MAPK12 (human) = MAPK12 (human) (UniProt P53778)
# MAPK13 (human) = MAPK13 (human) (UniProt O15264)
# MAPK3 (human) = MAPK3 (human) (UniProt P27361)
# MAPK3 (human), sequence (P27361 whole entry, looked up): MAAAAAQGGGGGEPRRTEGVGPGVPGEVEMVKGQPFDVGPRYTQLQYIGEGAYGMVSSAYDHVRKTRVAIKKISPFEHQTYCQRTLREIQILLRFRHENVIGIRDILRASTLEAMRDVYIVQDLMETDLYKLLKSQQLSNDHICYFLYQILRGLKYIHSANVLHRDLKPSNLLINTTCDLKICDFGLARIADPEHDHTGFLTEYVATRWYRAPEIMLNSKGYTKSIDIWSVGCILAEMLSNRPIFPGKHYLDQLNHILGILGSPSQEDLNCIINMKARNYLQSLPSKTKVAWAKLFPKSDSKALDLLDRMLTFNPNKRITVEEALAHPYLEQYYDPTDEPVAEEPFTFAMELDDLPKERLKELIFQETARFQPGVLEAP
# MAPK8 (human) = MAPK8 (human) (UniProt P45983)
# MAPK8 (human), sequence (P45983 whole entry, looked up): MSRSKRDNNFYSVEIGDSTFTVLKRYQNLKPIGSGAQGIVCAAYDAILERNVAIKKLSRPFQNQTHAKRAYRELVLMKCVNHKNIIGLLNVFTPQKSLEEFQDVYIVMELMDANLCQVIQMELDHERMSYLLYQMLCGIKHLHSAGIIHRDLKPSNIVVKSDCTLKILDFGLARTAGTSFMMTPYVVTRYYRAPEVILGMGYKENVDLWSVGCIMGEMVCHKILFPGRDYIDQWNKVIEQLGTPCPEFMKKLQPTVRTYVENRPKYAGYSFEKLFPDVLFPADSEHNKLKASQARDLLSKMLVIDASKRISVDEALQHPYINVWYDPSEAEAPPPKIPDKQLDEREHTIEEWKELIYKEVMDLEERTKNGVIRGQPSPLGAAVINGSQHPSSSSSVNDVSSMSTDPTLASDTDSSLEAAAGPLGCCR
# MAPKAPK3 (human) = MAPKAPK3 (human) (UniProt Q16644)
# MKNK1 (human) = MKNK1 (human) (UniProt Q9BUB5)
# NEK2 (human) = NEK2 (human) (UniProt P51955)
# PAK4 (human) = PAK4 (human) (UniProt O96013)
# PAK4 (human), sequence (O96013 whole entry, looked up): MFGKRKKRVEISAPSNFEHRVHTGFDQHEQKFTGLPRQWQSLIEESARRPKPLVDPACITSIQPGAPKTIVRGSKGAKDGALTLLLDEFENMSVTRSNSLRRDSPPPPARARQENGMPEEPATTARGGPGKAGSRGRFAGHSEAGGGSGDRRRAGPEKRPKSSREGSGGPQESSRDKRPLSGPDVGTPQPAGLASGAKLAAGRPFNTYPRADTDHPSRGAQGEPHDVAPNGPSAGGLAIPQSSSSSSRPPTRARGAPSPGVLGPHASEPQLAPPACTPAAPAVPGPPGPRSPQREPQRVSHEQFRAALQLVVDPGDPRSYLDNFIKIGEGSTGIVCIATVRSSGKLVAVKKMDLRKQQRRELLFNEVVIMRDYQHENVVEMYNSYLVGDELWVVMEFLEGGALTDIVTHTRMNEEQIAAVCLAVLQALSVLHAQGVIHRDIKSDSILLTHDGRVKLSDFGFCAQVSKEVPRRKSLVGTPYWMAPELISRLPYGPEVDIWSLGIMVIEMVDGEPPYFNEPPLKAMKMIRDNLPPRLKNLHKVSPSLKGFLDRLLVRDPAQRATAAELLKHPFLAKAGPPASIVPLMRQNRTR
# PAK7 (human) = PAK7 (human) (UniProt Q9P286)
# PAK7 (human), sequence (Q9P286 whole entry, looked up): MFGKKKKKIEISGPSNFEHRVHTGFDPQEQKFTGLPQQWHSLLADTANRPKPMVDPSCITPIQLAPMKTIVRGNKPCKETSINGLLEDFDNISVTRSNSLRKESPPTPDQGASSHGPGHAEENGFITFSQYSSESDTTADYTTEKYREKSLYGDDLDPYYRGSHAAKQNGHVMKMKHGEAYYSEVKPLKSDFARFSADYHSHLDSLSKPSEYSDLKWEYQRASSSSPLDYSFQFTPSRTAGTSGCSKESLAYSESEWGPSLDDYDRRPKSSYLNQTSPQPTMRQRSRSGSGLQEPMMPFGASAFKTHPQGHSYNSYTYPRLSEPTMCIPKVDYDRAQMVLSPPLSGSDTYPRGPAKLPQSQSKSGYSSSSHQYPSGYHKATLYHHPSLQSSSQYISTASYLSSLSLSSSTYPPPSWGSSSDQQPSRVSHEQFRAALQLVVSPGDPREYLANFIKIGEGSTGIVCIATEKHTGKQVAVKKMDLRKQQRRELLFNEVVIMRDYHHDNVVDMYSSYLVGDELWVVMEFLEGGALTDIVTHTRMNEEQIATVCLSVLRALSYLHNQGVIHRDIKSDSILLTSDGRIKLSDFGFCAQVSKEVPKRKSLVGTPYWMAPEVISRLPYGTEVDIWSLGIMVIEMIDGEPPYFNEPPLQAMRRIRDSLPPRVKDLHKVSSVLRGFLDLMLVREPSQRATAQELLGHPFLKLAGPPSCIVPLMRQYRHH
# PLK1 (human) = PLK1 (human) (UniProt P53350)
# PRKAA1 or PRKAA2 (rat) = settings: accession and sequence are those of the human protein
# PRKACA (human) = PRKACA (human) (UniProt P17612)
# PRKCA (human) = PRKCA (human) (UniProt P17252)
# RPS6KA1 KD1 KD2 (human) = RPS6KA1 KD1 KD2 (human) (UniProt Q15418)
# [2] = tested on: SGK1 (human), O00141 [S422D]
# DYRK2 (human), sequence (Q92630 whole entry, looked up): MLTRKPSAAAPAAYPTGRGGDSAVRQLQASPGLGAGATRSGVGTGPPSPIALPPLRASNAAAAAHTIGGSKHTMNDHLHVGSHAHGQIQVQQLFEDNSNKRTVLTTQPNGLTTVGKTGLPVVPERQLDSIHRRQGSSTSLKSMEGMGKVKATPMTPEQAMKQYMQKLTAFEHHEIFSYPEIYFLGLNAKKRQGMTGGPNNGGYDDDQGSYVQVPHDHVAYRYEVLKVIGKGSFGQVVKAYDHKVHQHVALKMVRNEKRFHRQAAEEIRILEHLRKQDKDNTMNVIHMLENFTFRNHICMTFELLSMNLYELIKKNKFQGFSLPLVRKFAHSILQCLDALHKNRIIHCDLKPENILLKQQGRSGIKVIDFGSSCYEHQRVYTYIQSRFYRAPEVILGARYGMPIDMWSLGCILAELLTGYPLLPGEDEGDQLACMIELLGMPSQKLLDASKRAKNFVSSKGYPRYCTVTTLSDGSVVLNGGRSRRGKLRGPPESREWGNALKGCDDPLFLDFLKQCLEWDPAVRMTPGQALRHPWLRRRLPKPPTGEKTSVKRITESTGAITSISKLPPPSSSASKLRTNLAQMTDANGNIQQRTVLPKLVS
# CHEK2 (human), sequence (O96017 whole entry, looked up): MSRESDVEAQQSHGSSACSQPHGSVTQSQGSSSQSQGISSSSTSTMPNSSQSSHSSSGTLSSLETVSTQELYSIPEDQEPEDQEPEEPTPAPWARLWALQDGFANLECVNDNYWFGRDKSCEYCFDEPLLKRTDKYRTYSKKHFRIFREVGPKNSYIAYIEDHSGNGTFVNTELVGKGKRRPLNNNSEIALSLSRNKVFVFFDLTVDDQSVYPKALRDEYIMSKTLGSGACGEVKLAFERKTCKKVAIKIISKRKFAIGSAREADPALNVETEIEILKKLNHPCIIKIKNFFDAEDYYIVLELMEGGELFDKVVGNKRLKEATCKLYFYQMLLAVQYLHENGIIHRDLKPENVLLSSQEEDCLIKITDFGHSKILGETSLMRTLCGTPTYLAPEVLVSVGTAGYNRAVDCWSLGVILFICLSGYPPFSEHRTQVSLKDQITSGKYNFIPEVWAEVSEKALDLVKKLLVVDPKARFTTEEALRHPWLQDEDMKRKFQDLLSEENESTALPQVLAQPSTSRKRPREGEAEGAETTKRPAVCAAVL
compound,measurement,setting,value
COc1ccc2c(c1)c1c3c(c4c5ccccc5n(C)c4c1n2CC(O)CN(C)C)C(=O)NC3=O (stereo not given),residual activity,[1]; compound 0.1 µM,70%
same,residual activity,[1]; compound 1.0 µM,34%
same,residual activity,[1]; compound 10.0 µM,8%
same,residual activity,BRSK2 (human); compound 0.1 µM,72%
same,residual activity,BRSK2 (human); compound 1.0 µM,18%
same,residual activity,BRSK2 (human); compound 10.0 µM,6%
same,residual activity,CHEK2 (human); compound 0.1 µM,57%
same,residual activity,CHEK2 (human); compound 1.0 µM,27%
same,residual activity,CHEK2 (human); compound 10.0 µM,10%
same,residual activity,CaMK1 (human); compound 0.1 µM,79%
same,residual activity,CaMK1 (human); compound 1.0 µM,55%
same,residual activity,CaMK1 (human); compound 10.0 µM,16%
same,residual activity,DYRK1A (human); compound 0.1 µM,96%
same,residual activity,DYRK1A (human); compound 1.0 µM,68%
same,residual activity,DYRK1A (human); compound 10.0 µM,41%
same,residual activity,DYRK2 (human); compound 0.1 µM,98%
same,residual activity,DYRK2 (human); compound 1.0 µM,65%
same,residual activity,DYRK2 (human); compound 10.0 µM,70%
same,residual activity,HIPK2 (human); compound 0.1 µM,97%
same,residual activity,HIPK2 (human); compound 1.0 µM,55%
same,residual activity,HIPK2 (human); compound 10.0 µM,24%
same,residual activity,MAPK1 (human); compound 0.1 µM,114%
same,residual activity,MAPK1 (human); compound 1.0 µM,110%
same,residual activity,MAPK1 (human); compound 10.0 µM,106%
same,residual activity,MAPK10 (human); compound 0.1 µM,90%
same,residual activity,MAPK10 (human); compound 1.0 µM,97%
same,residual activity,MAPK10 (human); compound 10.0 µM,87%
same,residual activity,MAPK12 (human); compound 0.1 µM,99%
same,residual activity,MAPK12 (human); compound 1.0 µM,90%
same,residual activity,MAPK12 (human); compound 10.0 µM,74%
same,residual activity,MAPK13 (human); compound 0.1 µM,89%
same,residual activity,MAPK13 (human); compound 1.0 µM,65%
same,residual activity,MAPK13 (human); compound 10.0 µM,37%
same,residual activity,MAPK3 (human); compound 0.1 µM,94%
same,residual activity,MAPK3 (human); compound 1.0 µM,102%
same,residual activity,MAPK3 (human); compound 10.0 µM,96%
same,residual activity,MAPK8 (human); compound 0.1 µM,103%
same,residual activity,MAPK8 (human); compound 1.0 µM,99%
same,residual activity,MAPK8 (human); compound 10.0 µM,60%
same,residual activity,MAPKAPK3 (human); compound 0.1 µM,131%
same,residual activity,MAPKAPK3 (human); compound 1.0 µM,92%
same,residual activity,MAPKAPK3 (human); compound 10.0 µM,79%
same,residual activity,MKNK1 (human); compound 0.1 µM,94%
same,residual activity,MKNK1 (human); compound 1.0 µM,80%
same,residual activity,MKNK1 (human); compound 10.0 µM,62%
same,residual activity,NEK2 (human); compound 0.1 µM,95%
same,residual activity,NEK2 (human); compound 1.0 µM,80%
same,residual activity,NEK2 (human); compound 10.0 µM,59%
same,residual activity,PAK4 (human); compound 0.1 µM,99%
same,residual activity,PAK4 (human); compound 1.0 µM,82%
same,residual activity,PAK4 (human); compound 10.0 µM,66%
same,residual activity,PAK7 (human); compound 0.1 µM,108%
same,residual activity,PAK7 (human); compound 1.0 µM,81%
same,residual activity,PAK7 (human); compound 10.0 µM,85%
same,residual activity,PLK1 (human); compound 0.1 µM,99%
same,residual activity,PLK1 (human); compound 1.0 µM,98%
same,residual activity,PLK1 (human); compound 10.0 µM,79%
same,residual activity,PRKAA1 or PRKAA2 (rat); compound 0.1 µM,64%
same,residual activity,PRKAA1 or PRKAA2 (rat); compound 1.0 µM,19%
same,residual activity,PRKAA1 or PRKAA2 (rat); compound 10.0 µM,24%
same,residual activity,PRKACA (human); compound 0.1 µM,42%
same,residual activity,PRKACA (human); compound 1.0 µM,7%
same,residual activity,PRKACA (human); compound 10.0 µM,2%
same,residual activity,PRKCA (human); compound 0.1 µM,5%
same,residual activity,PRKCA (human); compound 1.0 µM,1%
same,residual activity,PRKCA (human); compound 10.0 µM,1%
same,residual activity,RPS6KA1 KD1 KD2 (human); compound 0.1 µM,10%
same,residual activity,RPS6KA1 KD1 KD2 (human); compound 1.0 µM,5%
same,residual activity,RPS6KA1 KD1 KD2 (human); compound 10.0 µM,5%
same,residual activity,[2]; compound 0.1 µM,69%
same,residual activity,[2]; compound 1.0 µM,25%
same,residual activity,[2]; compound 10.0 µM,6%
Cc1cccc(Nc2nn(C)c3ncnc(N)c23)c1,residual activity,[1]; compound 1.0 µM,100%
same,residual activity,[1]; compound 10.0 µM,114%
same,residual activity,BRSK2 (human); compound 1.0 µM,102%
same,residual activity,BRSK2 (human); compound 10.0 µM,100%
same,residual activity,CHEK2 (human); compound 1.0 µM,84%
same,residual activity,CHEK2 (human); compound 10.0 µM,98%
same,residual activity,CaMK1 (human); compound 1.0 µM,92%
same,residual activity,CaMK1 (human); compound 10.0 µM,89%
same,residual activity,DYRK1A (human); compound 1.0 µM,90%
same,residual activity,DYRK1A (human); compound 10.0 µM,101%
same,residual activity,DYRK2 (human); compound 1.0 µM,93%
same,residual activity,DYRK2 (human); compound 10.0 µM,89%
same,residual activity,HIPK2 (human); compound 1.0 µM,124%
same,residual activity,HIPK2 (human); compound 10.0 µM,125%
same,residual activity,MAPK1 (human); compound 1.0 µM,116%
same,residual activity,MAPK1 (human); compound 10.0 µM,111%
same,residual activity,MAPK10 (human); compound 1.0 µM,101%
same,residual activity,MAPK10 (human); compound 10.0 µM,102%
same,residual activity,MAPK12 (human); compound 1.0 µM,120%
same,residual activity,MAPK12 (human); compound 10.0 µM,132%
same,residual activity,MAPK13 (human); compound 1.0 µM,101%
same,residual activity,MAPK13 (human); compound 10.0 µM,105%
same,residual activity,MAPK3 (human); compound 1.0 µM,114%
same,residual activity,MAPK3 (human); compound 10.0 µM,108%
same,residual activity,MAPK8 (human); compound 1.0 µM,99%
same,residual activity,MAPK8 (human); compound 10.0 µM,97%
same,residual activity,MAPKAPK3 (human); compound 1.0 µM,91%
same,residual activity,MAPKAPK3 (human); compound 10.0 µM,130%
same,residual activity,MKNK1 (human); compound 1.0 µM,92%
same,residual activity,MKNK1 (human); compound 10.0 µM,96%
same,residual activity,NEK2 (human); compound 1.0 µM,107%
same,residual activity,NEK2 (human); compound 10.0 µM,115%
same,residual activity,PAK4 (human); compound 1.0 µM,86%
same,residual activity,PAK4 (human); compound 10.0 µM,95%
same,residual activity,PAK7 (human); compound 1.0 µM,139%
same,residual activity,PAK7 (human); compound 10.0 µM,124%
same,residual activity,PLK1 (human); compound 1.0 µM,96%
same,residual activity,PLK1 (human); compound 10.0 µM,106%
same,residual activity,PRKAA1 or PRKAA2 (rat); compound 1.0 µM,111%
same,residual activity,PRKAA1 or PRKAA2 (rat); compound 10.0 µM,114%
same,residual activity,PRKACA (human); compound 1.0 µM,106%
same,residual activity,PRKACA (human); compound 10.0 µM,98%
same,residual activity,PRKCA (human); compound 1.0 µM,102%
same,residual activity,PRKCA (human); compound 10.0 µM,117%
same,residual activity,RPS6KA1 KD1 KD2 (human); compound 1.0 µM,108%
same,residual activity,RPS6KA1 KD1 KD2 (human); compound 10.0 µM,101%
same,residual activity,[2]; compound 1.0 µM,104%
same,residual activity,[2]; compound 10.0 µM,113%
